Measurements taken from patent publication US20260345834A1, “NIR-LIGHT ACTIVATABLE NANOGEL DELIVERY SYSTEM” (THE BOARD OF TRUSTEES OF THE UNIVERSITY OF ILLINOIS, priority 2022, published 2026).

Tests used:
Format in all cases: physicochemical
[1] = Photobleaching under 780 nm LED irradiation (NIR absorbance)
Method: FIG. 2. […] Time points=0, 15, 30 mins. Samples were irradiated with a LED light source at 780 m, (300 mW power output, 47.3 μW/mm^2 maximum irradiance).
FIG. 3. Absorption measurements of a 25 μM solution of a) Cy7-Cl and b) Cy780-Acryl when irradiated with a 780 nm LED light. Time points=0, 15, 30 mins. Samples were irradiated with a LED light source at 780 m, (300 mW power output, 47.3 μW/mm^2 maximum irradiance).
FIG. 4. Absorption measurements of a NIR-nanogel sample without dissolved oxygen when irradiated with a 780 nm LED light. Time points=0, 15, 30, 45, 60, 75, 90 mins. Samples were irradiated with a LED light source at 780 m, (300 mW power output, 47.3 μW/mm^2 maximum irradiance).
Time points=0, 15, 30, 45, 60, 90, 120, 150, 180 mins. b) Diameter of NIR-nanogels with and without NIR light irradiation measured via dynamic light scattering (left) and scanning electron microscopy (right). […] (n=300 for SEM) Scale bar represents 500 nm. e) Normalized absorbance of nanogels exposed to biologically relevant reactive species. f) Normalized absorbance of nanogels suspended in Britton-Robinson buffer (pH 4.2 to 12.0). […]
With the various components in hand, we turned our attention to testing whether the amide moiety would impact the photophysical properties of the cyanine core. First, we analyzed the absorption spectrum and measured the extinction coefficient of Cy780-Acryl. […]

[2] = Absorption spectrum and extinction coefficient in DMSO
Excerpt: With the various components in hand, we turned our attention to testing whether the amide moiety would impact the photophysical properties of the cyanine core. First, we analyzed the absorption spectrum and measured the extinction coefficient of Cy780-Acryl. Compared to the Cy7-Cl reference in DMSO, the λmax (831 nm cf. 793 nm) and extinction coefficients (1.11×10^5 M^−1cm^−1 cf. 1.23×10^5 M^−1cm^−1) were similar. Next, we evaluated the photostability of the crosslinker. When Cy780-Acryl (as well as Cy780-Acetamido) was irradiated with a LED light source at 780 nm (300 mW power output, 47.3 μW/mm^2 maximum irradiance), we found complete degradation of the molecule after only 25 minutes based on the disappearance of the NIR absorbance band (FIG. 2). […] Of note, when dissolved oxygen was removed prior to the initiation of photobleaching, we found the change in absorbance to be minimal, supporting the proposed dioxetane mechanism (FIG. 4). Indeed, the anticipated carbonyl fragmentation products were detected via LC-MS when samples were irradiated in the presence of oxygen (FIG. 5).
^1H and ^13C NMR spectra were acquired on a Varian 500 or Carver B500 spectrometer. […] Spectra were visualized and analyzed using MestReNova (version 14.2) and referenced to trace non-deuterated solvent. […]

[3] = Passive release of encapsulated cargo via dialysis; settings: drug-loaded NIR-nanogel, dialysis against MilliQ/DI water; for passive leeching of cargo (concentration loss): three hours
Method: FIG. 10A-D. Passive release of encapsulated a) cisplatin b) gefitinib c) GW9662 and d) Paclitaxel via dialysis for 0, 1, 2, and 4 hours against DI water.
After extensive screening, we obtained an optimized procedure that yielded reliable encapsulation results for each drug. We discovered that slow addition (versus bolus addition) of the drug to NIR-nanogel samples was essential to maintain a homogeneous suspension of the particles in solution. Further, the inclusion of at least 10% ethanol as a solubilizing co-solvent was necessary for drug encapsulation. […] After removal of non-encapsulated drug, we established a method to assess passive leeching of the contents by dialyzing the drug-loaded sample against MilliQ water. Small aliquots were removed at various time points and compared to the initial cargo concentration. […] In general, the extent of passive cargo loss was determined by placing a photobleached sample of each drug-loaded NIR-nanogel in 3 kDa MWCO dialysis tubing for dialysis against DI water. Aliquots were taken to determine the absorbance at various time points for comparison against the corresponding calibration curve.

| passive release of cargo (result in words) [3] | SMILES | passive leeching of cargo (concentration loss) [3] | also measured |
| --- | --- | --- | --- |
| – | C=CC(=O)Nc1ccc2c(c1)C(C)(C)C(/C=C/C1=C(Cl)C(=C/C=C3/N(CC)c4ccc(NC(=O)C=C)cc4C3(C)C)/CCC1)=[N+]2CC [Cy780-Acryl] | – | change in absorbance on irradiation without dissolved oxygen ([1]; 780 nm LED, dissolved oxygen removed prior to photobleaching): minimal; time to complete degradation (disappearance of the NIR absorbance band) ([1]; LED 780 nm, 300 mW power output, 47.3 μW/mm^2 maximum irradiance): 25 min; extinction coefficient [2]: 111000 M⁻¹ cm⁻¹; λmax [2]: 831 nm |
| no passive release | O=C(Nc1ccccc1)c1cc([N+](=O)[O-])ccc1Cl [GW9662] | – | – |
| – | N.N.[Cl][Pt][Cl] [cisplatin] | ~ 50% | – |
| – | COc1cc2ncnc(Nc3ccc(F)c(Cl)c3)c2cc1OCCCN1CCOCC1 [gefitinib] | ~ 6% | – |
| minimal leeching | CC(=O)O[C@H]1C(=O)[C@@]2(C)[C@H]([C@H](OC(=O)c3ccccc3)[C@]3(O)C[C@H](OC(=O)[C@H](O)[C@@H](NC(=O)c4ccccc4)c4ccccc4)C(C)=C1C3(C)C)[C@]1(OC(C)=O)CO[C@@H]1C[C@@H]2O [paclitaxel] | – | – |
